“And” between values parts separate entries of the source, which are not always exact repeats. Equal entries are not always repeated. Where only a bound is given, the exact number is not on record here.
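Also: XPA expressed in Sf9 cells, preincubated with compound on ice before adding DNA, complex resolved on native polyacrylamide gel at 4 °C, PhosphorImager band intensity, binding inhibition versus DMSO.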

In the test the target is full length XPA protein (Homo sapiens, UniProt P23025). Put plainly: biochemical. The note with it: IC50 (μM), EMSA, 32P labeled 30 bp duplex DNA containing a single 1,2 dGpG cisplatin adduct, several values in a cell = separate determinations.
full length XPA protein, sequence (P23025 whole entry): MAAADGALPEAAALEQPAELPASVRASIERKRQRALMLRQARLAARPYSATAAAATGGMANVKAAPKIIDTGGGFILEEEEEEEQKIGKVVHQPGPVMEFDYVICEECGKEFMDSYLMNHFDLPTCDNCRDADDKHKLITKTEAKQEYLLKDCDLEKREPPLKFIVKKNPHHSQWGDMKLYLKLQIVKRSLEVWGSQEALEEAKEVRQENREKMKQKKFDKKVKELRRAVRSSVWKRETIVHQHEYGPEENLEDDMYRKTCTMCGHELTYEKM
Method: Purified XPA (lanes 2-18) was mixed with DMSO (Lane 2, C) control or the indicated compound at a concentration of 50 μM (Lanes 3-18). ^32P labeled ds-platinum damaged DNA was added and incubation continued for 30 minutes on ice. The products were separated on a 6% native gel by electrophoresis at 4° C. Products were detected and quantified by PhosphorImager analysis.
EMSA was carried out using previously described procedure with the following modification. Reactions were performed in volume of 20 μL, containing a ^32P labeled 30 bp duplex DNA containing a single 1,2 dGpG cisplatin adduct. Compounds were pre-incubated on ice with the indicated amount of XPA and products separated by electrophoresis on a non-denaturing 6% polyacrylamide gel. Gels were cooled, loaded and electrophoresis performed at 4° C. Gels were used to expose a Phosphorlmager screen and band intensity determined and % binding and inhibition calculated as we have previously described.
Turning to `O=C(O)c1cccc(N2N=C(C(F)(F)F)/C(=C/c3ccc(-c4ccc(Cl)c(C(=O)NCC5CC5)c4)o3)C2=O)c1` [NG-04-304, 3-(4-((5-(4-chloro-3-((cyclopropylmethyl)carbamoyl)phenyl)furan-2-yl)methylene)-5-oxo-3-(trifluoromethyl)-4,5-dihydro-1H-pyrazol-1-yl)benzoic acid], the IC50 was above 50 µM. In turn, `C=CCCCc1cccc(-c2ccc(/C=C3/C=NN(c4cccc(C(=O)O)c4)C3=O)o2)c1` [Compound 2922] returned an IC50 of 3 µM. As to `CC1=NN(c2ccc(C(=O)O)cc2)C(=O)C1Cc1ccc(-c2ccc(Cl)c(C(=O)NCc3ccc(F)cc3)c2)o1` (stereo not shown) [NG-02-151, 4-(4-((5-(4-Chloro-3-((4-fluorobenzyl)carbamoyl)phenyl)furan-2-yl)methyl)-3-methyl-5-oxo-4,5-dihydro-1H-pyrazol-1-yl)benzoic acid], the 50% inhibitory concentration (IC50) is 15 µM and 35 µM.

The molecule `CC1=NN(c2cccc(C(=O)O)c2)C(=O)/C1=C\c1ccc(-c2ccc(Cl)c(C(=O)NC3CCOCC3)c2)o1` [Compound 34g, (Z)-3-(4-((5-(4-Chloro-3-((tetrahydro-2H-pyran-4-yl)carbamoyl)phenyl)furan-2-yl)methylene)-3-methyl-5-oxo-4,5-dihydro-1H-pyrazol-1-yl)benzoic acid] had an IC50 of 40 µM. As for `COc1cccc(NC(=O)c2cc(-c3ccc(CC4C(=O)N(c5cccc(C(=O)O)c5)N=C4C(F)(F)F)o3)ccc2Cl)c1` (stereo not shown) [NG-04-322, 3-(4-((5-(4-chloro-3-((3-methoxyphenyl)carbamoyl)phenyl)furan-2-yl)methyl)-5-oxo-3-(trifluoromethyl)-4,5-dihydro-1H-pyrazol-1-yl)benzoic acid], the figure is 30 µM; as for `O=C(O)c1cccc(N2N=C(C(F)(F)F)/C(=C/c3ccc(-c4ccc(Cl)c(C(=O)O)c4)o3)C2=O)c1` [NG-04-314, 5-(5-((1-(3-carboxyphenyl)-5-oxo-3-(trifluoromethyl)-1,5-dihydro-4H-pyrazol-4-ylidene)methyl)furan-2-yl)-2-chlorobenzoic acid], 15 µM. `COc1ccc(NC(=O)c2cc(-c3ccc(CC4C(=O)N(c5cccc(C(=O)O)c5)N=C4C)o3)ccc2Cl)cc1OC` (stereo not shown) [NG-03-206, 3-(4-((5-(4-Chloro-3-((3,4-dimethoxyphenyl)carbamoyl)phenyl)furan-2-yl)methyl)-3-methyl-5-oxo-4,5-dihydro-1H-pyrazol-1-yl)benzoic acid] registered a half-inhibitory concentration (IC50) of 11 µM. As for `CC1=NN(c2cccc(C(=O)O)c2)C(=O)/C1=C\c1ccc(-c2ccc(Cl)c(C(=O)COc3ccccc3Cl)c2)o1` [Compound 2249], the figure is 2.5 µM; as for `CC1=NN(c2cccc(C(=O)O)c2)C(=O)/C1=C\c1ccc(-c2ccc(Cl)c(C(=O)NCc3ccccc3Cl)c2)o1` [NG-03-271, (Z)-3-(4-((5-(4-chloro-3-((2-chlorobenzyl)carbamoyl)phenyl)furan-2-yl)methylene)-3-methyl-5-oxo-4,5-dihydro-1H-pyrazol-1-yl)benzoic acid], 40 µM. The molecule `CC1=NN(c2ccc(C(=O)O)cc2)C(=O)/C1=C\c1ccc(-c2ccc(Cl)c(C(=O)O)c2)s1` [NG-03-234, (Z)-5-(5-((1-(4-Carboxyphenyl)-3-methyl-5-oxo-1,5-dihydro-4H-pyrazol-4-ylidene)methyl)thiophen-2-yl)-2-chlorobenzoic acid] yielded an IC50 of 12 µM. Take `COc1cccc(NC(=O)c2cc(-c3ccc(/C=C4\C(=O)N(c5cccc(C(=O)O)c5)N=C4C)s3)ccc2Cl)c1` [NG-03-203, (Z)-3-(4-((5-(4-chloro-3-((3-methoxyphenyl)carbamoyl)phenyl)thiophen-2-yl)methylene)-3-methyl-5-oxo-4,5-dihydro-1H-pyrazol-1-yl)benzoic acid]: the IC50 was 3 µM and 7.5 µM and 11 µM.

`COc1cccc(CNC(=O)c2cc(-c3ccc(CC4C(=O)N(c5ccc(C(=O)O)cc5)N=C4C)o3)ccc2Cl)c1` (stereo not shown) [NG-04-294, 4-(4-((5-(4-chloro-3-((3-methoxybenzyl)carbamoyl)phenyl)furan-2-yl)methyl)-3-methyl-5-oxo-4,5-dihydro-1H-pyrazol-1-yl)benzoic acid] displayed an IC50 of 40 µM.

`CC1=NN(c2cccc(C(=O)O)c2)C(=O)/C1=C\c1ccc(-c2ccc(Cl)c(C(=O)NCc3ccc(F)cc3)c2)s1` [NG-03-227, (Z)-3-(4-((5-(4-Chloro-3-((4-fluorobenzyl)carbamoyl)phenyl)thiophen-2-yl)methylene)-3-methyl-5-oxo-4,5-dihydro-1H-pyrazol-1-yl)benzoic acid] gave a half-maximal inhibitory concentration (IC50) of 7 µM.

In the case of `COc1cccc(NC(=O)c2cc(-c3ccc(/C=C4\C(=O)N(c5ccc(C(=O)O)cc5)N=C4C)s3)ccc2Cl)c1` [NG-03-236, (Z)-4-(4-((5-(4-Chloro-3-((3-methoxyphenyl)carbamoyl)phenyl)thiophen-2-yl)methylene)-3-methyl-5-oxo-4,5-dihydro-1H-pyrazol-1-yl)benzoic acid], the IC50 came out at 12 µM. As for `COc1cccc(NC(=O)c2cc(-c3ccc(/C=C4\C(=O)N(c5cccc(C(=O)O)c5)N=C4C(F)(F)F)o3)ccc2Cl)c1` [NG-04-312, 3-(4-((5-(4-chloro-3-((3-methoxyphenyl)carbamoyl)phenyl)furan-2-yl)methylene)-5-oxo-3-(trifluoromethyl)-4,5-dihydro-1H-pyrazol-1-yl)benzoic acid], the figure is above 50 µM; as for `CC1=NN(c2cccc(C(=O)O)c2)C(=O)C1Cc1ccc(-c2ccc(Cl)c(C(=O)NCC3CC3)c2)o1` (stereo not shown) [NG-01-72R, 3-(4-((5-(4-Chloro-3-((cyclopropylmethyl)carbamoyl)phenyl)furan-2-yl)methyl)-3-methyl-5-oxo-4,5-dihydro-1H-pyrazol-1-yl)benzoic acid], 42 µM.

`CC1=NN(c2cccc(C(=O)O)c2)C(=O)C1Cc1ccc(-c2ccc(Cl)c(C(=O)NCc3ccc(F)cc3)c2)o1` (stereo not shown) [NG-01-65, 3-(4-((5-(4-Chloro-3-((4-fluorobenzyl)carbamoyl)phenyl)furan-2-yl)methyl)-3-methyl-5-oxo-4,5-dihydro-1H-pyrazol-1-yl)benzoic acid] returned an IC50 above 25 µM.

For the molecule `CCOC(=O)c1cccc(N2N=C(C)/C(=C/c3ccc(-c4ccc(Cl)c(C(=O)NCc5ccc(F)cc5)c4)o3)C2=O)c1` [Compound 33a, (Z)-Ethyl 3-(4-((5-(4-chloro-3-((4-fluorobenzyl)carbamoyl)phenyl)furan-2-yl)methylene)-3-methyl-5-oxo-4,5-dihydro-1H-pyrazol-1-yl)benzoate], the IC50 was above 25 µM. As for `COc1cccc(NC(=O)c2cc(-c3ccc(CC4C(=O)N(c5cccc(C(=O)O)c5)N=C4C)s3)ccc2Cl)c1` (stereo not shown) [NG-03-207, 3-(4-((5-(4-chloro-3-((3-Methoxyphenyl)carbamoyl)phenyl)thiophen-2-yl)methyl)-3-methyl-5-oxo-4,5-dihydro-1H-pyrazol-1-yl)benzoic acid], the figure is 12.5 µM; as for `COc1cccc(CNC(=O)c2cc(-c3ccc(/C=C4\C(=O)N(c5ccc(C(=O)O)cc5)N=C4C)o3)ccc2Cl)c1` [NG-03-286, (Z)-4-(4-((5-(4-Chloro-3-((3-methoxybenzyl)carbamoyl)phenyl)furan-2-yl)methylene)-3-methyl-5-oxo-4,5-dihydro-1H-pyrazol-1-yl)benzoic acid], 38 µM. The same measure for `CCOC(=O)c1cccc(N2N=C(C)/C(=C/c3ccc(-c4ccc(Cl)c(C(=O)O)c4)o3)C2=O)c1` [Compound 31a, (Z)-2-Chloro-5-(5-((1-(3-(ethoxycarbonyl)phenyl)-3-methyl-5-oxo-1H-pyrazol-4(5H)-ylidene)methyl)furan-2-yl)benzoic acid]: above 25 µM; for `CC1=NN(c2cccc(C(=O)O)c2)C(=O)/C1=C\c1ccc(-c2ccc(Cl)c(C(=O)NCc3ccccc3)c2)o1` [NG-03-270, (Z)-3-(4-((5-(3-(Benzylcarbamoyl)-4-chlorophenyl)furan-2-yl)methylene)-3-methyl-5-oxo-4,5-dihydro-1H-pyrazol-1-yl)benzoic acid]: 36 µM.

Take `COc1cccc(NC(=O)c2ccc(/C=C3\C(=O)N(c4cccc(C(=O)O)c4)N=C3C)o2)c1` [NG-02-162/ NG-02-162C, (Z)-3-(4-((5-((3-methoxyphenyl)carbamoyl)furan-2-yl)methylene)-3-methyl-5-oxo-4,5-dihydro-1H-pyrazol-1-yl)benzoic acid]: the IC50 came to 35 µM. `O=C(O)c1cccc(N2N=C(C(F)(F)F)C(Cc3ccc(-c4ccc(Cl)c(C(=O)NCC5CC5)c4)o3)C2=O)c1` (stereo not shown) [NG-04-309, 3-(4-((5-(4-chloro-3-((cyclopropylmethyl)carbamoyl)phenyl)furan-2-yl)methyl)-5-oxo-3-(trifluoromethyl)-4,5-dihydro-1H-pyrazol-1-yl)benzoic acid] displayed a concentration for half-maximal inhibition (IC50) of 40 µM. As to `CCOC(=O)c1cccc(N2N=C(C)C(=Cc3ccc(C(=O)O)o3)C2=O)c1` [NG-02-154, 5-((1-(3-(ethoxycarbonyl)phenyl)-3-methyl-5-oxo-1,5-dihydro-4H-pyrazol-4-ylidene)methyl)furan-2-carboxylic acid], the half-inhibitory concentration (IC50) is 45 µM.

Turning to `CCOC(=O)c1cccc(N2N=C(C(F)(F)F)/C(=C/c3ccc(-c4ccc(Cl)c(C(=O)O)c4)o3)C2=O)c1` [NG-04-300, 2-chloro-5-(5-((1-(3-(ethoxycarbonyl)phenyl)-5-oxo-3-(trifluoromethyl)-1,5-dihydro-4H-pyrazol-4-ylidene)methyl)furan-2-yl)benzoic acid], the 50% inhibitory concentration (IC50) amounted to 40 µM. As for `CC1=NN(c2cccc(C(=O)O)c2)C(=O)C1Cc1ccc(-c2ccc(Cl)c(C(=O)NCC3CC3)c2)s1` (stereo not shown) [NG-03-231, 3-(4-((5-(4-Chloro-3-((cyclopropylmethyl)carbamoyl)phenyl)thiophen-2-yl)methyl)-3-methyl-5-oxo-4,5-dihydro-1H-pyrazol-1-yl)benzoic acid], the figure is 40 µM. For `COc1cccc(NC(=O)c2cc(-c3ccc(/C=C4\C(=O)N(c5cccc(C#N)c5)N=C4C)o3)ccc2Cl)c1` [NG-03-193, (Z)-2-chloro-5-(5-((1-(3-cyanophenyl)-3-methyl-5-oxo-1,5-dihydro-4H-pyrazol-4-ylidene)methyl)furan-2-yl)-N-(3-methoxyphenyl)benzamide], the half-maximal inhibitory concentration (IC50) is above 25 µM.
